One data set is described as follows: physchem. Conditions: 25 °C, aqueous buffer. The text has this: (§1) A significant parameter for the behavior of the disclosed drug delivery compositions is drug solubility in an aqueous environment and in hydrophobic environment, such as the soybean oil used in the examples described herein. Without wishing to be bound by a particular theory, it is possible that diffusion of the drug in the external medium (PBS) is a rate limiting step. Accordingly, solubility of the drug in this phase is crucial for modeling calculations of drug release. Solubility in the oil phase was estimated by preparing drug delivery compositions with different concentrations of drug, and observing the samples under a microscope.

Data set [1] can be described thus: Solubility limit of drug in oil phase of drug delivery composition (microscopy for visible drug particles).
From the text: as §1

The mark [2] stands for this setting: apparent wt %, soybean oil phase, estimated from visible drug particles.

Structures can show the parent of a compound that is named as a salt. Where two headings read alike, the source gives them in different places.

As for `CN[C@H](CC(C)C)C(=O)N[C@H]1C(=O)N[C@@H](CC(N)=O)C(=O)N[C@H]2C(=O)N[C@H]3C(=O)N[C@H](C(=O)N[C@H](C(=O)O)c4cc(O)cc(O)c4-c4cc3ccc4O)[C@H](O)c3ccc(c(Cl)c3)Oc3cc2cc(c3O[C@@H]2O[C@H](CO)[C@@H](O)[C@H](O)[C@H]2O[C@H]2C[C@](C)(N)[C@H](O)[C@H](C)O2)Oc2ccc(cc2Cl)[C@H]1O` [Vancomycin Hydrochloride], the solubility in “physchem” was greater than 89 µg/mL.

With `C[C@@H]1C[C@H]2[C@@H]3CCC4=CC(=O)C=C[C@]4(C)[C@@]3(F)[C@@H](O)C[C@]2(C)[C@@]1(O)C(=O)COP(=O)(O)O` [Dexamethasone Phosphate], in data set [1], the “Solubility Limit in Oil Phase of Drug Delivery Composition” value (“Solubility Limit in Oil Phase” for short) is recorded as less than 0.1%. Further, the solubility in “physchem” (PBS) is greater than 89 µg/mL.

With `C[C@@H]1C[C@H]2[C@@H]3CCC4=CC(=O)C=C[C@]4(C)[C@@]3(F)[C@@H](O)C[C@]2(C)[C@@]1(O)C(=O)CO` [Dexamethasone], the “Solubility Limit in Oil Phase” value in data set [1] (setting [2]) is reported as 1%-3%.

`CC(C)(C)NC[C@H](O)COc1nsnc1N1CCOCC1` [Timolol Maleate]: the “Solubility Limit in Oil Phase” value in data set [1] (setting [2]) is 0.1%-1%. In addition, the solubility in “physchem” (PBS) is greater than 89 µg/mL.

The term solubility denotes how much of the substance goes into solution per volume.

The record behind these values is US11406594B2, “Oleogel compositions for retinal drug delivery” (University of Florida Research Foundation, Inc., priority 2017, dated 2022).
